Measurements as given in US10316017B2, “COT modulators and methods of use thereof” (Gilead Sciences, Inc., priority 2015, dated 2019).

How the values were obtained:
[1] = tested on: TNFα production in LPS-stimulated human monocytes; experiment: Cot Monocyte TNFα Cell Based Assay; details: Homo sapiens, Monocyte, TNFα in LPS-stimulated human monocytes; read-out: EC50 TNF
Summary of the method: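 TR-FRET read-out of total secreted TNFα, normalized as % control (unstimulated = 0%, LPS-stimulated = 100%). Cells (5,000/well) were exposed to compound 1 h at 37 °C, then to 50 pg/ml LPS for a further 4 h.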

[2] = molecular target: T1, human Cot catalytic domain (30-397 amino acids) (Homo sapiens, UniProt P41279); experiment: High Throughput Cot Biochemical Assay (KinEASE TR-FRET); details: Cot biochemical HTRF (KinEASE TR-FRET) assay; read-out: IC50 HTRF
T1 construct: Purified recombinant human Cot catalytic domain (30-397 amino acids) was purchased from Cama Biosciences; purchased Cama Biosciences (so in the source)
T1 sequence (P41279 30-397): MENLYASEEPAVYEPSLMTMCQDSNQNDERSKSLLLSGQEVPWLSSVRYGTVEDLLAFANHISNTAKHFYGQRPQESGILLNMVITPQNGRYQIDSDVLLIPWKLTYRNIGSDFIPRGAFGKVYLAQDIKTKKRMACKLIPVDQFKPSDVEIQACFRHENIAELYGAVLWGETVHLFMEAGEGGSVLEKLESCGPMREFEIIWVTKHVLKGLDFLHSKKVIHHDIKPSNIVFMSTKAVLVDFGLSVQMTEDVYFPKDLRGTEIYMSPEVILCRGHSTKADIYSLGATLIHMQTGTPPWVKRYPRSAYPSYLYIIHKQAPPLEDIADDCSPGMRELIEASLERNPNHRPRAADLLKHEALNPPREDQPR
Summary of the method: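 TR-FRET readout: Eu-labeled phospho-specific antibody binds XL665-tagged STK3 peptide after phosphorylation by Cot (aa 30-397, 5 nM). Conditions: 400 μM ATP, 1 μM peptide, MOPS pH 7.0 buffer with MgOAc, DTT, BSA, NP-40, glycerol; 0.1% DMSO.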

SMILES	EC50 [1]	IC50 [2]
CC(C)(C)N1CCC(n2cc([C@@H](Nc3cc(Cl)c4ncc(C#N)c(NC5CCCC5)c4c3)c3ccc(Cl)cc3)nn2)CC1 [Example 714, (S)-6-(((1-(1-(tert-butyl)piperidin-4-yl)-1H-1,2,3-triazol-4-yl)(4-chlorophenyl)methyl)amino)-8-chloro-4-(cyclopentylamino)quinoline-3-carbonitrile]	1700 nM	131 nM
CC(C)(C)N1CCC(n2cc([C@@H](Nc3cc(Cl)c4ncc(C#N)c(NC5CCCCC5)c4c3)c3ccc(Cl)cc3)nn2)CC1 [Example 715, (S)-6-(((1-(1-(tert-butyl)piperidin-4-yl)-1H-1,2,3-triazol-4-yl)(4-chlorophenyl)methyl)amino)-8-chloro-4-(cyclohexylamino)quinoline-3-carbonitrile]	2080 nM	62 nM
CC(C)(C)N1CCC(n2cc([C@@H](Nc3cc(Cl)c4ncc(C#N)c(NC5CCCCCC5)c4c3)c3ccc(Cl)cc3)nn2)CC1 [Example 716, (S)-6-(((1-(1-(tert-butyl)piperidin-4-yl)-1H-1,2,3-triazol-4-yl)(4-chlorophenyl)methyl)amino)-8-chloro-4-(cycloheptylamino)quinoline-3-carbonitrile]	847 nM	60 nM
CC(C)(C)N1CCC(n2cc([C@@H](Nc3cc(Cl)c4ncc(C#N)c(Nc5ccc(F)c(Cl)c5)c4c3)c3ccccc3CN3CCOCC3)nn2)CC1 [Example 719, (S)-6-(((1-(1-(tert-butyl)piperidin-4-yl)-1H-1,2,3-triazol-4-yl)(2-(morpholinomethyl)phenyl)methyl)amino)-8-chloro-4-((3-chloro-4-fluorophenyl)amino)quinoline-3-carbonitrile]	2580 nM	41 nM
CN(C)Cc1ccccc1[C@H](Nc1cc(Cl)c2ncc(C#N)c(Nc3ccc(F)c(Cl)c3)c2c1)c1cn(C2CCN(C(C)(C)C)CC2)nn1 [Example 720, (S)-6-(((1-(1-(tert-butyl)piperidin-4-yl)-1H-1,2,3-triazol-4-yl)(2-((dimethylamino)methyl)phenyl)methyl)amino)-8-chloro-4-((3-chloro-4-fluorophenyl)amino)quinoline-3-carbonitrile]	3990 nM	72 nM
N#Cc1cnc2c(Cl)cc(N[C@@H](c3ccccc3)c3cn(-c4cccnc4)nn3)cc2c1Nc1ccc(F)c(Cl)c1 [Example 721, (S)-8-chloro-4-((3-chloro-4-fluorophenyl)amino)-6-((phenyl (1-(pyridin-3-yl)-1H-1,2,3-triazol-4-yl)methyl)amino)quinoline-3-carbonitrile]	470 nM	21 nM
CC(C)(C)N1CCC(n2cc([C@@H](Nc3cc(Cl)c4ncc(C#N)c(Nc5ccc(F)c(Cl)c5)c4c3)c3ccccc3CO)nn2)CC1 [Example 722, (S)-6-(((1-(1-(tert-butyl)piperidin-4-yl)-1H-1,2,3-triazol-4-yl)(2-(hydroxymethyl)phenyl)methyl)amino)-8-chloro-4-((3-chloro-4-fluorophenyl)amino)quinoline-3-carbonitrile]	76 nM	4 nM
N#Cc1cnc2c(Cl)cc(N[C@@H](c3ccc(Cl)cc3)c3cn(C4CCN(C5COC5)CC4)nn3)cc2c1Nc1ccc(F)c(F)c1 [Example 723, (S)-8-chloro-6-(((4-chlorophenyl)(1-(1-(oxetan-3-yl)piperidin-4-yl)-1H-1,2,3-triazol-4-yl)methyl)amino)-4-((3,4-difluorophenyl)amino)quinoline-3-carbonitrile]	1300 nM	217 nM
COCCOCCn1cc([C@@H](Nc2cc(Cl)c3ncc(C#N)c(Nc4ccc(F)c(F)c4)c3c2)c2ccc(Cl)cc2)nn1 [Example 724, (S)-8-chloro-6-(((4-chlorophenyl)(1-(2-(2-methoxyethoxy)ethyl)-1H-1,2,3-triazol-4-yl)methyl)amino)-4-((3,4-difluorophenyl)amino) quinoline-3-carbonitrile]	1400 nM	87 nM
CC(C)(O)c1cccc([C@H](Nc2cc(Cl)c3ncc(C#N)c(Nc4ccc(F)c(Cl)c4)c3c2)c2cn(C3CCN(C(C)(C)C)CC3)nn2)c1 [Example 727, (S)-6-(((1-(1-(tert-butyl)piperidin-4-yl)-1H-1,2,3-triazol-4-yl)(3-(2-hydroxypropan-2-yl)phenyl)methyl)amino)-8-chloro-4-((3-chloro-4-fluorophenyl)amino)quinoline-3-carbonitrile]	178 nM	3 nM
COC(=O)c1cccc([C@H](Nc2cc(Cl)c3ncc(C#N)c(Nc4ccc(F)c(Cl)c4)c3c2)c2cn(C3CCN(C(C)(C)C)CC3)nn2)c1 [Example 728, methyl (S)-3-((1-(1-(tert-butyl)piperidin-4-yl)-1H-1,2,3-triazol-4-yl)((8-chloro-4-((3-chloro-4-fluorophenyl)amino)-3-cyanoquinolin-6-yl)amino)methyl)benzoate]	124 nM	3 nM
N#Cc1cnc2c(Cl)cc(N[C@@H](c3ccccc3)c3cn(Cc4ccccn4)nn3)cc2c1Nc1ccc(F)c(Cl)c1 [Example 729, (S)-8-chloro-4-((3-chloro-4-fluorophenyl)amino)-6-((phenyl (1-(pyridin-2-ylmethyl)-1H-1,2,3-triazol-4-yl)methyl)amino)quinoline-3-carbonitrile]	532 nM	32 nM
CC(C)(C)N1CCC(n2cc([C@@H](Nc3cc(Cl)c4ncc(C#N)c(Nc5ccc(Cl)c(Cl)c5F)c4c3)c3ccc(Cl)cc3)nn2)CC1 [Example 731, (S)-6-(((1-(1-(tert-butyl)piperidin-4-yl)-1H-1,2,3-triazol-4-yl)(4-chlorophenyl)methyl)amino)-8-chloro-4-((3,4-dichloro-2-fluorophenyl)amino)quinoline-3-carbonitrile]	4450 nM	78 nM
CC(C)(C)N1CCC(n2cc([C@@H](Nc3cc(Cl)c4ncc(C#N)c(Nc5ccc(F)c(Cl)c5)c4c3)c3cccc(CN4CCOCC4)c3)nn2)CC1 [Example 733, (S)-6-(((1-(1-(tert-butyl)piperidin-4-yl)-1H-1,2,3-triazol-4-yl)(3-(morpholinomethyl)phenyl)methyl)amino)-8-chloro-4-((3-chloro-4-fluorophenyl)amino)quinoline-3-carbonitrile]	884 nM	6 nM
Cc1nnc(C(Nc2cc(Cl)c3ncc(C#N)c(Nc4ccc(F)c(Cl)c4)c3c2)c2ccc(F)cc2)o1 (centres unmarked) [Example 734, 8-chloro-4-((3-chloro-4-fluorophenyl)amino)-6-(((4-fluorophenyl)(5-methyl-1,3,4-oxadiazol-2-yl)methyl)amino)quinoline-3-carbonitrile]	3900 nM	151 nM
CN1CC(n2cc([C@@H](Nc3cc(Cl)c4ncc(C#N)c(Nc5ccc(F)c(Cl)c5)c4c3)c3ccccc3)nn2)CC(F)(F)C1 (stereo partly drawn) [Example 736, 8-chloro-4-((3-chloro-4-fluorophenyl)amino)-6-(((1S)-(1-(5,5-difluoro-1-methylpiperidin-3-yl)-1H-1,2,3-triazol-4-yl)(phenyl)methyl)amino) quinoline-3-carbonitrile]	376 nM	41 nM
N#Cc1cnc2c(Cl)cc(N[C@@H](c3ccccc3)c3cn(CCN4CCOCC4)nn3)cc2c1Nc1ccc(F)c(Cl)c1 [Example 737, (S)-8-chloro-4-((3-chloro-4-fluorophenyl)amino)-6-(((1-(2-morpholinoethyl)-1H-1,2,3-triazol-4-yl)(phenyl)methyl)amino)quinoline-3-carbonitrile]	411 nM	21 nM
N#Cc1cnc2c(Cl)cc(N[C@@H](c3ccccc3)c3cn(CCO)nn3)cc2c1Nc1ccc(F)c(Cl)c1 [Example 738, (S)-8-chloro-4-((3-chloro-4-fluorophenyl)amino)-6-(((1-(2-hydroxyethyl)-1H-1,2,3-triazol-4-yl)(phenyl)methyl)amino)quinoline-3-carbonitrile]	274 nM	7 nM
CC(C)(C)N1CCC(n2cc([C@@H](Nc3cc(Cl)c4ncc(C#N)c(Nc5cccc(Cl)c5F)c4c3)c3ccc(Cl)cc3)nn2)CC1 [Example 739, (S)-6-(((1-(1-(tert-butyl)piperidin-4-yl)-1H-1,2,3-triazol-4-yl)(4-chlorophenyl)methyl)amino)-8-chloro-4-((3-chloro-2-fluorophenyl)amino)quinoline-3-carbonitrile]	1100 nM	22 nM
CC(C)(C)N1CCC(n2cc([C@@H](Nc3cc(Cl)c4ncc(C#N)c(Nc5ccc(Cl)cc5)c4c3)c3ccc(Cl)cc3)nn2)CC1 [Example 740, (S)-6-(((1-(1-(tert-butyl)piperidin-4-yl)-1H-1,2,3-triazol-4-yl)(4-chlorophenyl)methyl)amino)-8-chloro-4-((4-chlorophenyl)amino)quinoline-3-carbonitrile]	5550 nM	244 nM
Cc1cccc(Nc2c(C#N)cnc3c(Cl)cc(N[C@@H](c4ccc(Cl)cc4)c4cn(C5CCN(C(C)(C)C)CC5)nn4)cc23)c1 [Example 741, (S)-6-(((1-(1-(tert-butyl)piperidin-4-yl)-1H-1,2,3-triazol-4-yl)(4-chlorophenyl)methyl)amino)-8-chloro-4-(m-tolylamino)quinoline-3-carbonitrile]	1240 nM	122 nM
Cc1ccc(Nc2c(C#N)cnc3c(Cl)cc(N[C@@H](c4ccc(Cl)cc4)c4cn(C5CCN(C(C)(C)C)CC5)nn4)cc23)cc1 [Example 742, (S)-6-(((1-(1-(tert-butyl)piperidin-4-yl)-1H-1,2,3-triazol-4-yl)(4-chlorophenyl)methyl)amino)-8-chloro-4-(p-tolylamino)quinoline-3-carbonitrile]	1770 nM	315 nM
